Results as given in ChEMBL document CHEMBL1201862, “PubChem BioAssay data set” (2004).
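Briefly, cells in 96-well plates were exposed to five compound concentrations for 48 h, and endpoints were estimated by linear interpolation. The concentration for 50% growth inhibition is given as GI50.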 The source made the active and inactive calls. No stated cut-off is given here; in the data, active = GI50 up to about 1.1 µM and inactive = higher.

Key:
Experiment in all cases: NCI-60 cell line screen, 48 h
SNB-75 = system: SNB-75
M14 = system: M14
HCT-116 = system: HCT-116
U-251 = system: U-251
SK-MEL-2 = system: SK-MEL-2
SK-OV-3 = system: SK-OV-3
LOX IMVI = system: LOX IMVI
ACHN = system: ACHN
CAKI-1 = system: CAKI-1
Hs-578T = system: Hs-578T
SF-539 = system: SF-539
NCI-H23 = system: NCI-H23
786-0 = system: 786-0
A498 = system: A498
SK-MEL-5 = system: SK-MEL-5
OVCAR-8 = system: OVCAR-8
RXF 393 = system: RXF 393
SW-620 = system: SW-620
TK-10 = system: TK-10
MDA-MB-231 = system: MDA-MB-231

Compound | GI50 (SNB-75) | GI50 (M14) | GI50 (HCT-116) | GI50 (U-251) | GI50 (SK-MEL-2) | GI50 (SK-OV-3) | GI50 (LOX IMVI) | GI50 (ACHN) | GI50 (CAKI-1) | GI50 (Hs-578T) | GI50 (SF-539) | GI50 (NCI-H23) | GI50 (786-0) | GI50 (A498) | GI50 (SK-MEL-5) | GI50 (OVCAR-8) | GI50 (RXF 393) | GI50 (SW-620) | GI50 (TK-10) | GI50 (MDA-MB-231)
CN1CCN(CCCN2c3ccccc3Sc3ccc(C(F)(F)F)cc32)CC1 | 4.31 µM (inactive) | 1.72 µM (inactive) | 4.25 µM (inactive) | 4.95 µM (inactive) | 4.18 µM (inactive) | 13.5 µM (inactive) | 2.73 µM (inactive) | 10.7 µM (inactive) | 9.64 µM (inactive) | 3.4 µM (inactive) | 4.65 µM (inactive) | 11.1 µM (inactive) | 4.14 µM (inactive) | 12.6 µM (inactive) | 1.91 µM (inactive) | 13.1 µM (inactive) |  |  |  | 
CO/N=C(\C(=O)O/C(=N/C1CCCCC1)NC1CCCCC1)c1csc(NC(c2ccccc2)(c2ccccc2)c2ccccc2)n1 | > 10 µM (inactive) | > 10 µM (inactive) | > 10 µM (inactive) | > 10 µM (inactive) | > 10 µM (inactive) | > 10 µM (inactive) | 9.46 µM (inactive) | > 10 µM (inactive) | > 10 µM (inactive) | > 10 µM (inactive) | > 10 µM (inactive) | > 10 µM (inactive) | > 10 µM (inactive) | > 10 µM (inactive) | > 10 µM (inactive) | > 10 µM (inactive) | 5.05 µM (inactive) | > 10 µM (inactive) | > 10 µM (inactive) | 
COc1ccc(/C=C2/SC(c3ccc(Cl)cc3)N(NC(=O)CCCCCCCCC(=O)NN3C(=O)/C(=C\c4ccc(OC)c(OC)c4)SC3c3ccc(Cl)cc3)C2=O)cc1OC (centres undefined) | > 100 µM (inactive) | 44.1 µM (inactive) | 30.6 µM (inactive) | > 100 µM (inactive) | 78 µM (inactive) | 31.4 µM (inactive) |  | 65.2 µM (inactive) | 47.1 µM (inactive) |  | 29.2 µM (inactive) | 20.4 µM (inactive) | 24.4 µM (inactive) | 24.4 µM (inactive) | 50.1 µM (inactive) | 52.8 µM (inactive) | 28 µM (inactive) | > 100 µM (inactive) | 75.2 µM (inactive) | > 100 µM (inactive)
CC(C)CNC(=O)CCc1cccc2c1oc1c(CCN)cccc12 | 5.62 µM (inactive) | 15.6 µM (inactive) | 9.93 µM (inactive) | 5.85 µM (inactive) | 18.5 µM (inactive) | 17 µM (inactive) | 12.5 µM (inactive) | 12.8 µM (inactive) | 12.9 µM (inactive) |  | 16 µM (inactive) | 12.5 µM (inactive) | 12.4 µM (inactive) | 15 µM (inactive) | 14.2 µM (inactive) | 18.1 µM (inactive) | 16 µM (inactive) | 12 µM (inactive) |  | 15 µM (inactive)
CC(=O)OC(Cc1c(O)c2c(C)cccc2oc1=O)C(C)(C)O (centres undefined) | 76 µM (inactive) | > 100 µM (inactive) | 53.6 µM (inactive) | > 100 µM (inactive) | > 100 µM (inactive) | > 100 µM (inactive) | > 100 µM (inactive) | > 100 µM (inactive) | > 100 µM (inactive) | > 100 µM (inactive) | > 100 µM (inactive) | > 100 µM (inactive) | > 100 µM (inactive) | > 100 µM (inactive) | > 100 µM (inactive) | > 100 µM (inactive) |  | > 100 µM (inactive) | > 100 µM (inactive) | > 100 µM (inactive)
CC(C)(O)/C1=C/C=C/CCCCCCCCCC1 | 0.387 µM (active) | > 100 µM (inactive) | > 100 µM (inactive) | > 100 µM (inactive) | > 100 µM (inactive) | > 100 µM (inactive) | > 100 µM (inactive) | > 100 µM (inactive) | > 100 µM (inactive) | 1.19 µM (inactive) |  | > 100 µM (inactive) |  | > 100 µM (inactive) | 0.246 µM (active) | > 100 µM (inactive) |  | > 100 µM (inactive) | > 100 µM (inactive) | > 100 µM (inactive)
COc1ccc(NC(=S)N/N=C/c2cccc(C)n2)cc1 | 4.93 µM (inactive) | 2.4 µM (inactive) | 3.33 µM (inactive) | 4.09 µM (inactive) | 6.4 µM (inactive) | 4.61 µM (inactive) | 3.65 µM (inactive) | 2.83 µM (inactive) | 4.25 µM (inactive) | 24.7 µM (inactive) | 6.12 µM (inactive) | 6.05 µM (inactive) | 3.98 µM (inactive) | 18.8 µM (inactive) | 3.95 µM (inactive) | 3.74 µM (inactive) |  | 2.86 µM (inactive) | 8.13 µM (inactive) | 3.9 µM (inactive)
C=C(C)COC1CCCCO1 (centres undefined) | > 100 µM (inactive) | > 100 µM (inactive) | > 100 µM (inactive) | > 100 µM (inactive) | > 100 µM (inactive) | > 100 µM (inactive) | > 100 µM (inactive) | > 100 µM (inactive) | > 100 µM (inactive) | > 100 µM (inactive) | > 100 µM (inactive) | > 100 µM (inactive) | > 100 µM (inactive) | > 100 µM (inactive) | > 100 µM (inactive) | > 100 µM (inactive) |  | > 100 µM (inactive) | > 100 µM (inactive) | > 100 µM (inactive)
COc1ccccc1Nc1nc(NNC(=O)Cc2ccccc2)nc(NNC(=O)c2ccncc2)n1 | > 10 µM (inactive) | > 10 µM (inactive) |  | > 10 µM (inactive) |  | > 10 µM (inactive) | > 10 µM (inactive) |  | > 10 µM (inactive) | 9.04 µM (inactive) | > 10 µM (inactive) | > 10 µM (inactive) | > 10 µM (inactive) |  | > 10 µM (inactive) | > 10 µM (inactive) |  | > 10 µM (inactive) | > 10 µM (inactive) | > 10 µM (inactive)
Nc1nc(O)c2ncn([C@H]3CC[C@@H](CO)O3)c2n1 | > 100 µM (inactive) | > 100 µM (inactive) | > 100 µM (inactive) | > 100 µM (inactive) | > 100 µM (inactive) | > 100 µM (inactive) | > 100 µM (inactive) |  | > 100 µM (inactive) | > 100 µM (inactive) |  | > 100 µM (inactive) |  | > 100 µM (inactive) | > 100 µM (inactive) | > 100 µM (inactive) | > 100 µM (inactive) | > 100 µM (inactive) | > 100 µM (inactive) | 
COc1ccc(-c2cc(=O)c3c(O)c(OC)c(OC)c(OC)c3o2)cc1OC [5-DEMETHYLNOBILETIN] |  | > 100 µM (inactive) | > 100 µM (inactive) | 39.7 µM (inactive) | 91.2 µM (inactive) | 20.4 µM (inactive) | 47.8 µM (inactive) | > 100 µM (inactive) | > 100 µM (inactive) | 12.6 µM (inactive) | 86.5 µM (inactive) | > 100 µM (inactive) | 58.7 µM (inactive) | > 100 µM (inactive) | 27.4 µM (inactive) | > 100 µM (inactive) |  | > 10 µM (inactive) | 67.1 µM (inactive) | > 100 µM (inactive)
